Reference: patent publication US20090226527A1, “Particulate-stabilized injectable pharmacutical compositions of posaconazole” (priority 2004, published 2009)
In brackets after ≈: the same amount, converted by molar mass.

Test system: infectious agents (strains tested)
Experiment: organism not typed
Format: cell-based

## C[C@@H](c1ncncc1F)[C@](O)(Cn1cncn1)c1ccc(F)cc1F [Voriconazole]
Absidia spp, read-out: Geometric Mean MIC
  MIC: 40.3 µg/mL (≈ 115 µM)
Absidia spp, read-out: MIC[90]
  MIC: 8 to 128 µg/mL (≈ 22.9 to 366 µM)
Apophysomyces spp, read-out: Geometric Mean MIC
  MIC: 42.2 µg/mL (≈ 121 µM)
Apophysomyces spp, read-out: MIC[90]
  MIC: 16 to 128 µg/mL (≈ 45.8 to 366 µM)
Aspergillus flavus, read-out: Geometric Mean MIC
  MIC: 0.339 µg/mL (≈ 0.97 µM)
Aspergillus flavus, read-out: MIC[90]
  MIC: 1 µg/mL (≈ 2.86 µM)
Aspergillus fumigatus, read-out: Geometric Mean MIC
  MIC: 0.282 µg/mL (≈ 0.807 µM)
Aspergillus fumigatus, read-out: MIC[90]
  MIC: 0.5 µg/mL (≈ 1.43 µM)
Aspergillus nidulans, read-out: Geometric Mean MIC
  MIC: 0.07 µg/mL (≈ 0.2 µM)
Aspergillus nidulans, read-out: MIC[90]
  MIC: 0.031 to 0.125 µg/mL (≈ 0.0887 to 0.358 µM)
Aspergillus niger, read-out: Geometric Mean MIC
  MIC: 0.48 µg/mL (≈ 1.37 µM)
Aspergillus niger, read-out: MIC[90]
  MIC: 2 µg/mL (≈ 5.73 µM)
Aspergillus sydowii, read-out: Geometric Mean MIC
  MIC: 0.397 µg/mL (≈ 1.14 µM)
Aspergillus sydowii, read-out: MIC[90]
  MIC: 0.25 to 1 µg/mL (≈ 0.716 to 2.86 µM)
Aspergillus terreus, read-out: Geometric Mean MIC
  MIC: 0.312 µg/mL (≈ 0.893 µM)
Aspergillus terreus, read-out: MIC[90]
  MIC: 0.5 µg/mL (≈ 1.43 µM)
Aspergillus ustus, read-out: Geometric Mean MIC
  MIC: 1.19 µg/mL (≈ 3.4 µM)
Aspergillus ustus, read-out: MIC[90]
  MIC: 0.25 to 2 µg/mL (≈ 0.716 to 5.73 µM)
Bipolaris spp, read-out: Geometric Mean MIC
  MIC: 1 µg/mL (≈ 2.86 µM)
Bipolaris spp, read-out: MIC[90]
  MIC: 1 µg/mL (≈ 2.86 µM)
Bjerkandera adusta, read-out: Geometric Mean MIC
  MIC: 0.216 µg/mL (≈ 0.618 µM)
Bjerkandera adusta, read-out: MIC[90]
  MIC: 0.25 µg/mL (≈ 0.716 µM)
Candida albicans, read-out: Geometric Mean MIC
  MIC: 0.021 µg/mL (≈ 0.0601 µM)
Candida albicans, read-out: MIC[90]
  MIC: 0.063 µg/mL (≈ 0.18 µM)
Candida dubliniensis, read-out: Geometric Mean MIC
  MIC: 0.028 µg/mL (≈ 0.0802 µM)
Candida dubliniensis, read-out: MIC[90]
  MIC: 0.125 µg/mL (≈ 0.358 µM)
Candida tropicalis, read-out: Geometric Mean MIC
  MIC: 0.075 µg/mL (≈ 0.215 µM)
Candida tropicalis, read-out: MIC[90]
  MIC: 0.5 µg/mL (≈ 1.43 µM)
Clavispora lusitaniae, Candida lusitaniae, read-out: Geometric Mean MIC
  MIC: 0.023 µg/mL (≈ 0.0658 µM)
Clavispora lusitaniae, Candida lusitaniae, read-out: MIC[90]
  MIC: 0.063 µg/mL (≈ 0.18 µM)
Cryptococcus neoformans, read-out: Geometric Mean MIC
  MIC: 0.054 µg/mL (≈ 0.155 µM)
Cryptococcus neoformans, read-out: MIC[90]
  MIC: 0.125 µg/mL (≈ 0.358 µM)
Curvularia spp, read-out: Geometric Mean MIC
  MIC: 0.125 µg/mL (≈ 0.358 µM)
Curvularia spp, read-out: MIC[90]
  MIC: 0.125 µg/mL (≈ 0.358 µM)
Debaryomyces hansenii, Candida famata, read-out: Geometric Mean MIC
  MIC: 0.072 µg/mL (≈ 0.206 µM)
Debaryomyces hansenii, Candida famata, read-out: MIC[90]
  MIC: 0.008 to 0.5 µg/mL (≈ 0.0229 to 1.43 µM)
Diutina rugosa, Candida rugosa, read-out: Geometric Mean MIC
  MIC: 0.072 µg/mL (≈ 0.206 µM)
Diutina rugosa, Candida rugosa, read-out: MIC[90]
  MIC: 0.5 µg/mL (≈ 1.43 µM)
Dujonia zeylanoides, Candida zeylanoides, read-out: Geometric Mean MIC
  MIC: 0.039 µg/mL (≈ 0.112 µM)
Dujonia zeylanoides, Candida zeylanoides, read-out: MIC[90]
  MIC: 0.008 to 0.125 µg/mL (≈ 0.0229 to 0.358 µM)
Epidermophyton floccosum, read-out: Geometric Mean MIC
  MIC: 0.015 µg/mL (≈ 0.0429 µM)
Epidermophyton floccosum, read-out: MIC[90]
  MIC: 0.016 µg/mL (≈ 0.0458 µM)
Exophiala dermatidis, read-out: Geometric Mean MIC
  MIC: 0.063 µg/mL (≈ 0.18 µM)
Exophiala dermatidis, read-out: MIC[90]
  MIC: 0.063 µg/mL (≈ 0.18 µM)
Exophiala dermatitidis, Wangiella dermatitidis, read-out: Geometric Mean MIC
  MIC: 1 µg/mL (≈ 2.86 µM)
Exophiala dermatitidis, Wangiella dermatitidis, read-out: MIC[90]
  MIC: 1 µg/mL (≈ 2.86 µM)
Exophiala jeanselmei, read-out: Geometric Mean MIC
  MIC: 0.794 µg/mL (≈ 2.27 µM)
Exophiala jeanselmei, read-out: MIC[90]
  MIC: 0.5 to 1 µg/mL (≈ 1.43 to 2.86 µM)
Fonsecae pedrosoi, read-out: Geometric Mean MIC
  MIC: 0.5 µg/mL (≈ 1.43 µM)
Fonsecae pedrosoi, read-out: MIC[90]
  MIC: 0.5 µg/mL (≈ 1.43 µM)
Fusarium spp, read-out: Geometric Mean MIC
  MIC: 4.42 µg/mL (≈ 12.6 µM)
Fusarium spp, read-out: MIC[90]
  MIC: 16 µg/mL (≈ 45.8 µM)
Kluyveromyces marxianus, Candida kefyr, read-out: Geometric Mean MIC
  MIC: 0.031 µg/mL (≈ 0.0887 µM)
Kluyveromyces marxianus, Candida kefyr, read-out: MIC[90]
  MIC: 0.031 µg/mL (≈ 0.0887 µM)
Lodderomyces parapsilosis, Candida parapsilosis, read-out: Geometric Mean MIC
  MIC: 0.036 µg/mL (≈ 0.103 µM)
Lodderomyces parapsilosis, Candida parapsilosis, read-out: MIC[90]
  MIC: 0.125 µg/mL (≈ 0.358 µM)
Meyerozyma guilliermondii, Candida guilliermondii, read-out: Geometric Mean MIC
  MIC: 0.112 µg/mL (≈ 0.321 µM)
Meyerozyma guilliermondii, Candida guilliermondii, read-out: MIC[90]
  MIC: 8 µg/mL (≈ 22.9 µM)
Microsporum canis, read-out: Geometric Mean MIC
  MIC: 0.018 µg/mL (≈ 0.0515 µM)
Microsporum canis, read-out: MIC[90]
  MIC: 0.031 µg/mL (≈ 0.0887 µM)
Mucor spp, read-out: Geometric Mean MIC
  MIC: 24.7 µg/mL (≈ 70.6 µM)
Mucor spp, read-out: MIC[90]
  MIC: 1 to 128 µg/mL (≈ 2.86 to 366 µM)
Nakaseomyces glabratus, Candida glabrata, read-out: Geometric Mean MIC
  MIC: 0.305 µg/mL (≈ 0.873 µM)
Nakaseomyces glabratus, Candida glabrata, read-out: MIC[90]
  MIC: 2 µg/mL (≈ 5.73 µM)
Paecilomyces spp, read-out: Geometric Mean MIC
  MIC: 0.324 µg/mL (≈ 0.928 µM)
Paecilomyces spp, read-out: MIC[90]
  MIC: 0.031 to 2 µg/mL (≈ 0.0887 to 5.73 µM)
Papiliotrema laurentii, Cryptococcus laurentii, read-out: Geometric Mean MIC
  MIC: 0.25 µg/mL (≈ 0.716 µM)
Papiliotrema laurentii, Cryptococcus laurentii, read-out: MIC[90]
  MIC: 0.25 µg/mL (≈ 0.716 µM)
Penicillium spp, read-out: Geometric Mean MIC
  MIC: 0.622 µg/mL (≈ 1.78 µM)
Penicillium spp, read-out: MIC[90]
  MIC: 2 µg/mL (≈ 5.73 µM)
Pichia kudriavzevii, Candida krusei, read-out: Geometric Mean MIC
  MIC: 0.346 µg/mL (≈ 0.991 µM)
Pichia kudriavzevii, Candida krusei, read-out: MIC[90]
  MIC: 0.5 µg/mL (≈ 1.43 µM)
Rhizomucor spp, read-out: Geometric Mean MIC
  MIC: 2 µg/mL (≈ 5.73 µM)
Rhizomucor spp, read-out: MIC[90]
  MIC: 2 µg/mL (≈ 5.73 µM)
Rhizopus spp, read-out: Geometric Mean MIC
  MIC: 8 µg/mL (≈ 22.9 µM)
Rhizopus spp, read-out: MIC[90]
  MIC: 1 to 32 µg/mL (≈ 2.86 to 91.6 µM)
Saccharomyces cerevisiae, read-out: Geometric Mean MIC
  MIC: 0.05 µg/mL (≈ 0.143 µM)
Saccharomyces cerevisiae, read-out: MIC[90]
  MIC: 0.125 µg/mL (≈ 0.358 µM)
Scedosporium apiospermum, read-out: Geometric Mean MIC
  MIC: 0.098 µg/mL (≈ 0.281 µM)
Scedosporium apiospermum, read-out: MIC[90]
  MIC: 0.5 µg/mL (≈ 1.43 µM)
Scedosporium boydii, Pseudallescheria boydii, read-out: Geometric Mean MIC
  MIC: 0.25 µg/mL (≈ 0.716 µM)
Scedosporium boydii, Pseudallescheria boydii, read-out: MIC[90]
  MIC: 0.125 to 0.5 µg/mL (≈ 0.358 to 1.43 µM)
Trichophyton mentagrophytes, read-out: Geometric Mean MIC
  MIC: 0.038 µg/mL (≈ 0.109 µM)
Trichophyton mentagrophytes, read-out: MIC[90]
  MIC: 0.25 µg/mL (≈ 0.716 µM)
Trichophyton rubrum, read-out: Geometric Mean MIC
  MIC: 0.021 µg/mL (≈ 0.0601 µM)
Trichophyton rubrum, read-out: MIC[90]
  MIC: 0.063 µg/mL (≈ 0.18 µM)
Trichophyton tonsurans, read-out: Geometric Mean MIC
  MIC: 0.043 µg/mL (≈ 0.123 µM)
Trichophyton tonsurans, read-out: MIC[90]
  MIC: 0.063 µg/mL (≈ 0.18 µM)
Trichosporon spp, read-out: Geometric Mean MIC
  MIC: 0.125 µg/mL (≈ 0.358 µM)
Trichosporon spp, read-out: MIC[90]
  MIC: 0.125 µg/mL (≈ 0.358 µM)
